Tests used:
huSTING (HAQ) = huSTING (HAQ) (Homo sapiens (Human), UniProt Q86WV6, G230A/H232R/R293Q/R71H); assay: THP-1 reporter cell line assay, THP-1 STING Lucia ISG cells; format: cell-based; details: THP-1 STING Lucia ISG cells; modified method, top concentration 40 μM, pin tool, EnVision; read-out: Cellular EC50 huSTING (HAQ)
huSTING (WT) = huSTING (WT) (Homo sapiens (Human), UniProt Q86WV6, H232R); assay: THP-1 reporter cell line assay, THP-1-Dual KI-hSTING-R232 cells; format: cell-based; details: read-out: Cellular EC50 huSTING (WT)
Chain of huSTING (WT) (Q86WV6 whole entry H232R): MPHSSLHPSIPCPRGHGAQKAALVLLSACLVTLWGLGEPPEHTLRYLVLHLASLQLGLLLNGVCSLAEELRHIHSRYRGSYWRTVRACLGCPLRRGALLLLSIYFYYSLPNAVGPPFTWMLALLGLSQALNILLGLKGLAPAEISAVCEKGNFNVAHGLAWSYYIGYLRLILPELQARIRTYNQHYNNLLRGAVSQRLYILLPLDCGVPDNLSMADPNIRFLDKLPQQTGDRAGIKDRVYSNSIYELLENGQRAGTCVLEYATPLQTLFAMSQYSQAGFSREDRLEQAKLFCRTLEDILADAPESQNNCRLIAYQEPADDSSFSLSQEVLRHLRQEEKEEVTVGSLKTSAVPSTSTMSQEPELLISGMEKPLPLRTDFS

Chain of huSTING (HAQ) (Q86WV6 whole entry R71H/G230A/H232R/R293Q): as the sequence (Q86WV6 whole entry H232R) above, with R71H, G230A, R293Q counted along it

Compound | EC50 (huSTING (HAQ)) | EC50 (huSTING (WT))
CCOC(=O)c1sc2cccc(Cl)c2c1COc1ccc(C(N)=O)c(OC)c1 [Example 97, Ethyl 3-((4-carbamoyl-3-methoxyphenoxy)methyl)-4-chlorobenzo[b]thiophene-2-carboxylate] | 1430 nM | 9720 nM
CCOC(=O)c1sc2c(Br)ccc(Cl)c2c1COc1c(F)cc(C(N)=O)cc1F [Example 99, Ethyl 7-bromo-3-((4-carbamoyl-2,6-difluorophenoxy)methyl)-4-chlorobenzo[b]thiophene-2-carboxylate] | 22 nM | 135 nM
CCOC(=O)c1sc2ccnc(OC)c2c1COc1c(F)cc(C(N)=O)cc1F [Example 102, Ethyl 3-((4-carbamoyl-2,6-difluorophenoxy)methyl)-4-methoxythieno[3,2-c]pyridine-2-carboxylate] | 53 nM | 377 nM
CCOC(=O)c1sc2ncnc(OC)c2c1COc1c(F)cc(C(N)=O)cc1F [Example 108] | 344 nM | 341 nM
CCOC(=O)c1sc2cccc(Cl)c2c1COc1c(F)cc(C(N)=O)cc1CO [Example 110, Ethyl 3-((4-carbamoyl-2-fluoro-6-(hydroxymethyl)phenoxy)methyl)-4-chlorobenzo[b]thiophene-2-carboxylate] | 13 nM | 52 nM
CCOC(=O)c1sc2cccc(COC)c2c1COc1c(F)cc(C(N)=O)cc1F [Example 115, Ethyl 3-((4-carbamoyl-2,6-difluorophenoxy)methyl)-4-(methoxymethyl)benzo[b]thiophene-2-carboxylate] | 635 nM | 1510 nM
CC(OC(=O)OC(C)(C)C)OC(=O)c1sc2cccc(Cl)c2c1COc1c(F)cc(C(N)=O)cc1F (stereo not drawn) [Example 129, 1-((tert-Butoxycarbonyl)oxy)ethyl 3-((4-carbamoyl-2,6-difluorophenoxy)methyl)-4-chlorobenzo[b]thiophene-2-carboxylate] | 119 nM | 1580 nM
CC(C)(C)OC(=O)OCOC(=O)c1sc2cccc(Cl)c2c1COc1c(F)cc(C(N)=O)cc1F [Example 130, ((tert-Butoxycarbonyl)oxy)methyl 3-((4-carbamoyl-2,6-difluorophenoxy)methyl)-4-chlorobenzo[b]thiophene-2-carboxylate] | 60 nM | 687 nM
CC(C)[C@H](NC(=O)OC(C)(C)C)C(=O)OCOC(=O)c1sc2cccc(Cl)c2c1COc1c(F)cc(C(N)=O)cc1F [Example 133, (((tert-Butoxycarbonyl)-L-valyl)oxy)methyl 3-((4-carbamoyl-2,6-difluorophenoxy)methyl)-4-chlorobenzo[b]thiophene-2-carboxylate] | 120 nM | 806 nM
CC(=O)OC(C)OC(=O)c1sc2cccc(Cl)c2c1COc1c(F)cc(C(N)=O)cc1F (stereo not drawn) [Example 134, 1-Acetoxyethyl 3-((4-carbamoyl-2,6-difluorophenoxy)methyl)-4-chlorobenzo[b]thiophene-2-carboxylate] | 42 nM | 217 nM

Results, then the compound that gave them:

EC50 (huSTING (HAQ)) | EC50 (huSTING (WT)) | Compound
24 nM | 76 nM | CCOC(=O)c1sc2c(F)ccc(Br)c2c1COc1c(F)cc(C(N)=O)cc1F [Example 116, Ethyl 4-bromo-3-((4-carbamoyl-2,6-difluorophenoxy)methyl)-7-fluorobenzo[b]thiophene-2-carboxylate]
59 nM | 580 nM | CCOC(=O)c1sc2ccnc(OC)c2c1COc1c(F)cc(C(N)=O)cc1CO [Example 121, Ethyl 3-((4-carbamoyl-2-fluoro-6-(hydroxymethyl)phenoxy)methyl)-4-methoxythieno[3,2-c]pyridine-2-carboxylate]
49 nM | 335 nM | COc1cccc2sc(C(=O)OCOC(=O)C(C)(C)C)c(COc3c(F)cc(C(N)=O)cc3F)c12 [Example 123, (Pivaloyloxy)methyl 3-((4-carbamoyl-2,6-difluorophenoxy)methyl)-4-methoxybenzo[b]thiophene-2-carboxylate]
278 nM | 1430 nM | CC(C)(C)C(=O)OCOC(=O)c1sc2cccc(C3CC3)c2c1COc1c(F)cc(C(N)=O)cc1F [Example 124, (Pivaloyloxy)methyl 3-((4-carbamoyl-2,6-difluorophenoxy)methyl)-4-cyclopropylbenzo[b]thiophene-2-carboxylate]
86 nM | 529 nM | CCC(=O)OC(OC(=O)c1sc2cccc(Cl)c2c1COc1c(F)cc(C(N)=O)cc1F)C(C)C (stereo not drawn) [Example 125, 2-Methyl-1-(propionyloxy)propyl 3-((4-carbamoyl-2,6-difluorophenoxy)methyl)-4-chlorobenzo[b]thiophene-2-carboxylate]
39 nM | 187 nM | Cc1oc(=O)oc1COC(=O)c1sc2cccc(Cl)c2c1COc1c(F)cc(C(N)=O)cc1F [Example 126, (5-Methyl-2-oxo-1,3-dioxol-4-yl)methyl 3-((4-carbamoyl-2,6-difluorophenoxy)methyl)-4-chlorobenzo[b]thiophene-2-carboxylate]
68 nM | 210 nM | CC(C)(C)C(=O)OCOC(=O)c1sc2cccc(Br)c2c1COc1c(F)cc(C(N)=O)cc1F [Example 128, (Pivaloyloxy)methyl 4-bromo-3-((4-carbamoyl-2,6-difluorophenoxy)methyl)benzo[b]thiophene-2-carboxylate]
44 nM | 57 nM | CC(C)(C)C(=O)OCOC(=O)c1sc2c(F)ccc(Br)c2c1COc1c(F)cc(C(N)=O)cc1F [Example 131]
97 nM | 916 nM | CC(C)OC(=O)OC(C)OC(=O)c1sc2cccc(Cl)c2c1COc1c(F)cc(C(N)=O)cc1F (stereo not drawn) [Example 132, 1-((Isopropoxycarbonyl)oxy)ethyl 3-((4-carbamoyl-2,6-difluorophenoxy)methyl)-4-chlorobenzo[b]thiophene-2-carboxylate]
64 nM | 334 nM | CC(OC(=O)c1sc2cccc(Cl)c2c1COc1c(F)cc(C(N)=O)cc1F)OC(=O)C(C)C (stereo not drawn) [Example 135, 1-(Isobutyryloxy)ethyl 3-((4-carbamoyl-2,6-difluorophenoxy)methyl)-4-chlorobenzo[b]thiophene-2-carboxylate]
21 nM | 226 nM | NC(=O)c1cc(F)c(OCc2c(C(=O)OCCN3CCOCC3)sc3cccc(Cl)c23)c(F)c1 [Example 137, 2-Morpholinoethyl 3-((4-carbamoyl-2,6-difluorophenoxy)methyl)-4-chlorobenzo[b]thiophene-2-carboxylate]
14 nM | 242 nM | CN(C)C(=O)OCOC(=O)c1sc2cccc(Cl)c2c1COc1c(F)cc(C(N)=O)cc1F [Example 138, ((Dimethylcarbamoyl)oxy)methyl 3-((4-carbamoyl-2,6-difluorophenoxy)methyl)-4-chlorobenzo[b]thiophene-2-carboxylate]
36 nM | 291 nM | CC(=O)N[C@H](C(=O)OCOC(=O)c1sc2cccc(Cl)c2c1COc1c(F)cc(C(N)=O)cc1F)C(C)C [Example 139, ((Acetyl-L-valyl)oxy)methyl 3-((4-carbamoyl-2,6-difluorophenoxy)methyl)-4-chlorobenzo[b]thiophene-2-carboxylate]
46 nM | 160 nM | CCC(=O)OC(OC(=O)c1sc2c(F)ccc(Br)c2c1COc1c(F)cc(C(N)=O)cc1F)C(C)C (stereo not drawn) [Example 140, 2-Methyl-1-(propionyloxy)propyl 4-bromo-3-((4-carbamoyl-2,6-difluorophenoxy)methyl)-7-fluorobenzo[b]thiophene-2-carboxylate]
